Earlier results, collected in US20040029892A1, “Compositions and dosage forms for application in the oral cavity in the treatment of mykoses” (priority 2003, published 2004).

Conditions: almost insoluble

solubility in water: less than 1 μg/ml
Compound: CCC(C)n1ncn(-c2ccc(N3CCN(c4ccc(OCC5COC(Cn6cncn6)(c6ccc(Cl)cc6Cl)O5)cc4)CC3)cc2)c1=O (racemic) [itraconazole, (±)-cis-4-[4-[4-[4-[[2-(2,4-dichlorophenyl)-2(1H-1,2,4-triazol-1-yl-methyl)-1,3-dioxolan-4-yl]methoxy]phenyl]-1piperazinyl]phenyl]-2,4-dihydro-2-(1-methylpropyl)-3H-1,2,4-triazol-3-one]
